According to patent US20070244107A1, “Method of Treating Atherosclerosis, Dyslipidemias and Related Conditions” (priority 2004, published 2007):
Entries after “also recorded” stand apart in the source; their conditions may differ.

Test system: male C57B16 mice
Assay: Flushing via laser Doppler procedure in mice
Type: in vivo
Conditions: relative to nicotinic acid; mouse model
Method: To measure flushing, male C57B16 mice (approx. 25 g) are anesthetized using 10 mg/mkg Nembutal sodium. After ten minutes the animal is placed under the laser and the ear is folded back to expose the ventral side. The laser is positioned in the center of the ear and focused to an intensity of 8.4-9.0 V (which is generally approx. 4.5 cm above the ear). Data acquisition is initiated with a 15 by 15 image format, auto interval, 60 images and a 20 sec time delay with a medium resolution. Test compounds are administered following the 10th image via injection into the peritoneal space. Images 1-10 are considered the animal's baseline and data is normalized to an average of the baseline mean intensities.

## C1Cc2[nH]nc(-c3nnn[nH]3)c2C1 [compound of formula I, 3-(2H-tetrazol-5-yl)-1,4,5,6-tetrahydrocyclopentapyrazole]
  flushing effect: reduced flushing effect relative to nicotinic acid; also recorded: reduced flushing effect relative to nicotinic acid, but flushing is not completely eliminated
